The values that follow come from patent US20230104823A1, “PROCESS FOR THE PREPARATION OF PURINE DERIVATIVES EXHIBITING CDK INHIBITORY ACTIVITY” (CYCLACEL LIMITED, priority 2020, published 2023).

Converted amounts (≈) assume the structure as drawn.

One data set has as its system CDK. Particulars: statement in background section; cited from earlier work.
A short description of data set [1]: solubility measurement during crystallisation of crude compound [1]. The format is physicochemical. The following applies: for T=0 solubility measurement: 5 volumes. As to the method: The hot mixture was clarified through a heated large nylon syringe filter (0.44 μm) into a Mya4 100 ml process vessel with overhead U-shape agitation at 200 RPM pre-heated to 95° C. (target internal temperature=80-85° C.). The dark brown solution was cooled to 74.5° C. over 15 minutes and seeded with crystals of compound [1] (Form A) (ca. 6 mg 0.1% wt). […] Noticeable amounts of off-white precipitate were observed ca. 61-62° C. Following cooling, the mixture was held at 0° C. for ca. 3 hours. The solids were isolated via filtration, with no evidence of fouling of the vessel or agitator. The vessel and filter cake were washed with the isolated filtrates and air dried for 15 minutes before collection of the off-white solids and dark brown liquors. The solids were collected and dried in vacuo at 45° C. for ca. 4 hours to yield the title compound. 4.88 g of crystalline Compound [1] was successfully isolated in 80.1% yield. The maximum theoretical recovery based upon measured solubility pre-isolation at 0° C. was 94.2%.
Crude Compound [1] (6.00 g) was suspended ethyl acetate (30 ml, 5 volumes) in a suitable glass vessel under N2 fitted with reflux condenser and stirrer bead agitation at 420 RPM. The beige suspension was heated to 75° C. (target 70-75° C.) upon which full dissolution to a dark brown solution was achieved during heating at ca. 68° C. The hot mixture was clarified through a heated large nylon syringe filter (0.44 μm) into a Mya4 100 ml process vessel with overhead U-shape agitation at 200 RPM pre-heated to 85° C. (target internal temperature=70-75° C.). The dark brown solution was cooled to 65.2° C. over 15 minutes (target 62.5-67.5° C.) and seeded with crystals of compound [1] (Form A) (ca. 6 mg 0.1% wt). Cooling was continued to 59.8° C. […] The solids were isolated via filtration. The vessel and filter cake were washed with the isolated filtrates and air dried for 12 minutes before collection of the off-white solids and dark brown liquors. The solids were collected and dried in vacuo at 45° C. for ca. 4 hours to yield the title compound. 4.59 g of crystalline Compound [1] was successfully isolated in 76.4% yield. The maximum theoretical recovery based upon measured solubility pre-isolation at 0° C. was 90.6%.
Crude Compound [1] (5.96 g) was suspended n-Butyl acetate (30 ml, 5 volumes) in a suitable glass vessel under N2 fitted with reflux condenser and stirrer bead agitation at 420 RPM. The beige suspension was heated to 85° C. (target 80-85° C.) upon which full dissolution to a dark brown solution was achieved during heating at ca. 82° C. The hot mixture was clarified through a heated large nylon syringe filter (0.44 μm) into a Mya4 100 ml process vessel with overhead U-shape agitation at 200 RPM pre-heated to 95° C. (target internal temperature=80-85° C.). The dark brown solution was cooled to 74.6° C. over 15 minutes (target 72.5-77.5° C.) and seeded with crystals of compound [1] (Form A) (ca. 6 mg 0.1% wt). Cooling was continued to 69.5° C. […] The solids were isolated via filtration. The vessel and filter cake were washed with the isolated filtrates and air dried for 10 minutes before collection of the grey solids and dark brown liquors. The solids were collected and dried in vacuo at 45° C. for ca. 4 hours to yield the title compound. 4.64 g of crystalline Compound [1] was successfully isolated in 77.9% yield. The maximum theoretical recovery based upon measured solubility pre-isolation at 0° C. was 91.7%.

Data set [2] concerns range of different cell lines. The following applies: statement in background section; cited from earlier work.

As to `CC[C@H](Nc1nc(NCc2cnc(C)cc2C)c2ncn(C(C)C)c2n1)[C@@H](C)O` [Compound [1]], the CDK inhibitory activity entry with CDK was “potent CDK inhibitory activity”. Moreover, the “T=0 solubility measurement” value in data set [1] (ethyl acetate, after seeding at 59.8° C.) turned out to be 184.35 mg/mL; in data set [1] (isopropyl acetate, after seeding at 70.1° C.), 189.83 mg/mL; in data set [1] (n-butyl acetate, after seeding at 69.5° C.), 175.84 mg/mL. Besides, the solubility came to 18.84 mg/mL (≈ 47.4 mM) in data set [1] (ethyl acetate, held at 0° C. for ca. 5 hours (90.06% development)) and 16.61 mg/mL (≈ 41.8 mM) in data set [1] (n-butyl acetate, held at 0° C. for ca. 3 hours (91.7% development)). In data set [2], the “potency in cellular toxicity studies” value is “surprisingly high potency”.
